# Patent US20170252433A1, “PSMA-RELATED THERAPIES” (Memorial Sloan Kettering Cancer Center, priority 2014, published 2017)
# Tests used:
# [1] = tested on: PSMA-expressing prostate cancer cells (LNCaP-wt, PC3-hPSMA) and PC3-wt; test: Cytoplasmic calcium quantification (Fluo4 assay); assay type: cell-based, human
# Experimental: Cells were seeded at a density of 10,000 per well on a 96-well plate and grown overnight. Loading of the calcium-sensing dye Fluo4 (Life Technologies, Calrsbad, Calif.) was performed according to the manufacturer's instructions. Where indicated the cells were treated with thapsigargin (1 μM, Tocris, Minneapolis, Minn.), L-Quisqualic acid (110 μM, Tocris), 3,5-DHPG (0.67 mM, Tocris), L-AP3 (125 μM, Tocris), U73122 (50 μM, Tocris), and 2-PMPA (100 μM, Tocris) immediately before measuring calcium levels, with a SpectraMax M5 plate reader (Molecular Devices, Sunnyvale, Calif.).
# The effect of PSMA expression on calcium homeostasis in prostate cancer cell lines was evaluated using the fluorimetric Fluo4 assay kit (Invitrogen), according to the supplier's instructions. The plate was excited at 490 nm, and fluorescence emission was monitored at 520 nm with the SpectraMax M5 plate reader (Molecular Devices). […] To examine calcium accumulation in the cytoplasm, the cells were treated with thapsigargin (1 μM, Tocris) immediately prior to taking measurements with the plate reader. […] Furthermore, we investigated whether PSMA facilitates calcium signaling via the mGluR Group I receptors through its enzymatic activity. The cells were treated with either L-Quisqualic acid (110 μM; mGluR I agonist, Tocris), L-AP3 (125 μM; mGluR I antagonist, Tocris) or a PSMA inhibitor (100 μM, Tocris), immediately prior to taking calcium measurements.
# [2] = tested on: phosphorylation of CAMKK2, AMPKα and AKT in PSMA-expressing and PSMA-negative (PC3-wt) cells; test: Phosphorylation status by isoelectric focusing (NanoPro); assay type: cell-based, human; details: for CAMKK2 phosphorylation: 5 μM, 48 h, FIG. 3b
# Experimental: CAMKK2, AMPKα and AKT antibodies were purchased from Cell Signaling (Danvers, Mass.). Cells were grown to confluence and treated with 2-PMPA (5 μM, Tocris) for 48 h. The phosphorylation status of proteins of interest was determined with an isoelectric-focusing instrument (NanoPro1000, Protein Simple, Santa Clara, Calif.), where the samples were prepared and analyzed according to the supplier's guidelines. Determination of site-specific phosphorylation of key proteins was performed with a human phosphor-kinase array (ARY003, R&D Systems, Minneapolis, Minn.), according to the product's instructions.
# Phosphorylation state of calcium dependent downstream effectors was analyzed. Since activation of metabotropic glutamate receptors and their associated G proteins can lead to phosphorylation of downstream effectors, phosphorylation levels of key proteins relative to PSMA expression was examined. The NanoPro system from Protein Simple was used, which allowed the determination of global phosphorylation status based on the isoelectric point changes of the target protein. The samples were prepared according to the supplier's guidelines, following lysis of the cells with the NanoPro lysis buffer. All antibodies used were purchased from Cell Signaling, detecting the total protein levels of a target protein. […] (FIG. 3b). […] It has been previously shown that either G protein-activated PI3K or calcium-activated mTORC2 phosphorylating PAK can cause Akt's phosphorylation. All graphs depict mean±s.e.m.
# LNCaP and PC3-PSMA cells = test: Total secreted prostaglandins; assay type: cell-based, human; details: 5 μM, 48 h, FIG. 5c-d
# From the text: LNCaP cells that have a functional AR pathway were obtained from ATCC (Manassas, Va.) and grown to confluence. […] The levels of nitric oxide attributed to nitric oxide synthase's activity and the concentration of total secreted prostaglandins were quantified with the corresponding kits purchased from Cayman Chemicals (Ann Arbor, Mich.).
# Furthermore, it was examined whether PSMA inhibition affects the activity of nitric oxide synthase and the levels of prostaglandins, since both Akt and Ca+2 regulate these processes. The activity of nitric oxide synthase was assessed by quantifying the sample's total nitrate levels with a kit from Cayman Chemicals, whereas the levels of total prostaglandins secreted in the cell's medium were measured with the total prostaglandin kit from Cayman Chemicals. Inhibition of PSMA was performed with a PSMA inhibitor (5 μM) at 48 h at 37° C., 5% CO2.
# LNCaP-wt xenografts = test: Photoacoustic imaging of tumor vascularization and oxygenation; assay type: in vivo, male athymic, nude mice; details: 0.4 mM, 100 μL retro-orbital injection daily
# Experimental: Male, athymic, nude mice (Harlan Laboratories, Indianapolis, Ind.) were implanted with LNCaP xenografts (3 million cells in 100 μL Matrigel). Immediately post xengraft implantation, the mice were treated daily iv with 2-PMPA (0.4 mM, 100 μL retro-orbital injection). Tumor vascularization and oxygenation was assessed 15 days after treatment commencements, using the Vevo LAZR small-animal photoacoustic imaging platform (Visualsonics, Toronto, ON, Canada).
# The tumors used in the study had roughly the same size. […] (FIG. 6 a-b). […] (FIG. 6c)
# [3] = tested on: LNCaP, LNCaP-KD, PC3-PSMA and PC3-wt cells; test: In vitro chemotherapy, cell viability (Alamar blue)
# Experimental: Cells were seeded in a 96-well format (2,500 cells per well), and grown for 48 h. They were then treated with the following drugs at a final concentration of 200 nM: Doxorubicin, Taxol, AZD6244, BEZ235, Lapatinib, and Velcade (all purchased from Selleck Chemicals, Houston, Tex.). For combination therapy, cells were treated with 2-PMPA (5 μM final concentration). After overnight incubation in the presence of the drugs, cell viability was determined with the Alamar blue method according to the supplier's guidelines (Life Technologies, Carlsbad, Calif.)
# Given that PSMA affects the phosphorylation status of multiple targets, it was investigated whether inhibition of PSMA can counteract resistance to various chemotherapeutics used in the clinic or under clinical trials. LNCaP and PCS3-PSMA cells were seeded at a density of 2,500 cells per well in a 96-well format, and after 48 hours growth the cells were treated with the drugs (Doxorubicin (Adriamycin; DNA intercalator), Taxol (Paclitaxel; microtubule stabilizer), AZD6244 (Selumetinib; MEK1 & ERK1/2 inhibitor), BEZ235 (Dactolisib; PI3K & mTOR inhibitor), Lapatinib (EGFR and ErbB2 inhibitor), or Velcade (Bortezomib; 20S proteasome inhibitor), 200 nM final concentration in 1×PBS) or with the drugs (200 nM final concentration) and 2-PMPA (5 μM final concentration). After overnight incubation, cell viability was assessed fluorimetrically with the Alamar blue method (Invitrogen), according to the supplier's protocol.
compound,measurement,setting,value
O=C(O)CCC(CP(=O)(O)O)C(=O)O (stereo not shown) [2-PMPA],cytoplasmic calcium levels,"[1]; PSMA inhibition compared with Phospholipase C inhibitor U73122 50 μM, FIG. 1d",reduction in calcium levels
same,cytoplasmic calcium levels,"[1]; PSMA-expressing cells, PSMA inhibitor 100 μM, L-AP3 125 μM, FIG. 1c",lowered calcium levels
same,CAMKK2 phosphorylation,[2]; PSMA-expressing cells,decreased CAMKK2's phosphorylation
same,phosphorylation of AMPKα,"[2]; PSMA-positive cells, FIG. 3c",impaired
same,phosphorylation of AKT,"[2]; PSMA-positive cells, FIG. 3d",impaired
same,CAMKK2 phosphorylation,[2]; cells lacking PSMA,no effect
same,total levels of secreted prostaglandins,LNCaP and PC3-PSMA cells,decreased
same,tumor total hemoglobin levels,LNCaP-wt xenografts; FIG. 6a-b,lower total hemoglobin levels
same,tumor consumption of oxygen,LNCaP-wt xenografts; FIG. 6c,lower consumption of oxygen
same,tumor oxygenation,LNCaP-wt xenografts; versus saline,lower tumor oxygenation
same,tumor vascularization,"LNCaP-wt xenografts; versus saline, FIG. 6a-b",lower tumor vascularization
same,effect of 2-PMPA on toxicity of chemotherapeutics (cell viability),"[3]; PSMA-expressing cells, drugs 200 nM plus 2-PMPA 5 μM, overnight, FIG. 7a-d",enhanced the toxicity of all chemotherapeutics
same,cytotoxic effect of the inhibitor alone,[3]; for the study's time-course,no cytotoxic effect
